From ChEMBL document CHEMBL1135212, “Evolution, synthesis and SAR of tripeptide alpha-ketoacid inhibitors of the hepatitis C virus NS3/NS4A serine protease” (Bioorg Med Chem Lett, 2002)
Square brackets hold non-standard residues; d marks the D form. Peptide text beside a SMILES is read from it. Dip = N[C@H](C(=O)O)C(c1ccccc1)c1ccccc1; Abu(4,4-F2) = N[C@@H](CC(F)F)C(=O)O; Cha = N[C@@H](CC1CCCCC1)C(=O)O

Each molecule was assayed against Hepatitis C virus serine protease, NS3/NS4A (Hepatitis C virus, UniProt A3EZI9+D2K2A8) (assay: Inhibitory activity against hepatitis C virus (HCV) NS3/NS4A serine protease).
Hepatitis C virus serine protease, NS3/NS4A, sequence (D2K2A8 whole entry): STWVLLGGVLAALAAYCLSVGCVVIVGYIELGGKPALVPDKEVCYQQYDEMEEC
Hepatitis C virus serine protease, NS3/NS4A, sequence (A3EZI9 whole entry): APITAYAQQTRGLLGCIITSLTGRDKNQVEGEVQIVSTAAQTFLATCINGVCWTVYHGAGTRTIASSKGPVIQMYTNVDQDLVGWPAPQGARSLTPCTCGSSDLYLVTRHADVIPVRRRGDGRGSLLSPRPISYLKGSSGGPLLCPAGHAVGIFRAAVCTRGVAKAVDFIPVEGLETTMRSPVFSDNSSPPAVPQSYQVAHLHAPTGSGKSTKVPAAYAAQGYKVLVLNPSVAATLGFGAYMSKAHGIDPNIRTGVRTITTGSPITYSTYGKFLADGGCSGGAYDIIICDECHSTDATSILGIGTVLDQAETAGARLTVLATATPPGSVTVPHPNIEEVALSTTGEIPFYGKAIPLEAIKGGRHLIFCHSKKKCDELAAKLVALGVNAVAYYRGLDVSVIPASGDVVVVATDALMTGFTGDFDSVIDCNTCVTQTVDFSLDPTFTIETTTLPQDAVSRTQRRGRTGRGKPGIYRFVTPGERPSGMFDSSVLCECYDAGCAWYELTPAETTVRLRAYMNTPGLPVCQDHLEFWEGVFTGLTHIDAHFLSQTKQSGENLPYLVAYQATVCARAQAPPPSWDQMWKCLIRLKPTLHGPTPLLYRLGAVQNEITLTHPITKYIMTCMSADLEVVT
Assay type: protein-complex assay, Hepacivirus hominis

Row | Compound | Ki [nM]
1 | CC(=O)N[C@@H](CC(=O)O)C(=O)N[C@@H](CCC(=O)O)C(=O)N[C@H](C(=O)N[C@@H](CCC(=O)O)C(=O)N[C@@H](CC1CCCCC1)C(=O)N[C@@H](CC(F)F)C(=O)O)C(c1ccccc1)c1ccccc1 (Ac-DE[Dip]E[Cha][Abu(4,4-F2)]-OH) | 40

Each molecule was assayed against Genome polyprotein (Hepatitis C virus genotype 1a (isolate 1) (HCV), UniProt P26664) (assay: Inhibition to hepatitis C virus (HCV) NS3/NS4A serine protease).
Genome polyprotein, sequence (P26664 1027-1657 limits assumed): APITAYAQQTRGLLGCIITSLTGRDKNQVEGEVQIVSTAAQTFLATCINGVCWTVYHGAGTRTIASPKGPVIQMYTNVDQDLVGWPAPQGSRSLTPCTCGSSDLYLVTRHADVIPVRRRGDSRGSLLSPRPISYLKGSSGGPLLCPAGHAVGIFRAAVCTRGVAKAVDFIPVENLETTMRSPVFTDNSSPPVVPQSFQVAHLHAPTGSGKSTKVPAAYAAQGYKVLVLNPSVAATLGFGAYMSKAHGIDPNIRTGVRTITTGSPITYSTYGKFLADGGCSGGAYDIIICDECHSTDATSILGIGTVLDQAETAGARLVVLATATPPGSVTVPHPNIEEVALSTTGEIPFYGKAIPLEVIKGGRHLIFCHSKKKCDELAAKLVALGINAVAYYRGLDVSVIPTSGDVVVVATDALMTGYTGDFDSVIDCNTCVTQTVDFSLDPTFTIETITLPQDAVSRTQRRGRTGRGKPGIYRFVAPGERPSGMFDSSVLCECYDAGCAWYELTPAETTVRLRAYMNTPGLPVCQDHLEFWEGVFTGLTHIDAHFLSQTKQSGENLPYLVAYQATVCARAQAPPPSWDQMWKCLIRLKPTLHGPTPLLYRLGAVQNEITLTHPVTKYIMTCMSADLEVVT
Genome polyprotein, sequence (P26664 1658-1711 limits assumed): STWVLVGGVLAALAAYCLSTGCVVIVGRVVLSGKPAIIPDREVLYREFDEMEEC

Row | Compound | IC50 [nM]
2 | CCC(C)[C@H](NC(=O)OCc1ccccc1)C(=O)N[C@@H](CC(C)C)C(=O)N[C@H](CC(=O)O)CC(F)F (stereo partly drawn) | > 50000
3 | CCC(C)[C@H](NC(=O)OCc1ccccc1)C(=O)N[C@@H](CC(C)C)C(=O)N[C@@H](CC(F)F)C(=O)C(=O)OC (stereo partly drawn) | > 50000
4 | CCC(C)[C@H](NC(=O)OCc1ccccc1)C(=O)N[C@@H](CC(C)C)C(=O)N[C@@H](CC(F)F)C(O)C(=O)O (stereo partly drawn) | > 50000
5 | CCC(C)[C@H](NC(=O)NCc1ccccc1)C(=O)N[C@@H](CC(C)C)C(=O)N[C@@H](CC(F)F)C(=O)C(=O)O (stereo partly drawn) | 3300
6 | CCC(C)[C@H](NC(=O)OCc1ccccc1)C(=O)N[C@@H](Cc1ccccc1)C(=O)N[C@@H](CC(F)F)C(=O)C(=O)O (stereo partly drawn) | 9400
7 | CCC(C)[C@H](NC(=O)OCc1ccc(C(=O)OC)cc1)C(=O)N[C@@H](CC(C)C)C(=O)N[C@@H](CC(F)F)C(=O)C(=O)O (stereo partly drawn) | 1700
8 | CC(=O)N[C@H](C(=O)[C@H](CCC(=O)O)N[C@@H](CC1CCCCC1)C(=O)N[C@H](C=O)CC(F)F)C(c1ccccc1)c1ccccc1 | > 50000
9 | CC[C@H](C)[C@H](NC(=O)OCc1ccccc1)C(=O)N[C@@H](CC(C)C)C(=O)N[C@H](C=O)CC(F)F | > 50000
10 | CC[C@H](NC(=O)[C@@H](NC(=O)OCc1ccccc1)[C@@H](C)CC)C(=O)N[C@@H](CC(F)F)C(=O)C(=O)O | 3280
11 | CC[C@H](C)[C@H](NC(=O)OCc1ccccc1)C(=O)N[C@@H](C)C(=O)N[C@@H](CC(F)F)C(=O)C(=O)O | 15600
12 | CC[C@H](C)[C@H](NC(=O)OCc1ccccc1)C(=O)NCC(=O)N[C@@H](CC(F)F)C(=O)C(=O)O | > 100000
13 | CC[C@H](C)[C@H](NC(=O)OCc1ccccc1)C(=O)N[C@@H](CC(C)C)C(=O)N[C@@H](CC(F)F)C(=O)c1nnn[nH]1 | > 50000
14 | CCC(C)[C@H](NC(=O)OCc1ccc(C(=O)O)cc1)C(=O)N[C@@H](CC(C)C)C(=O)N[C@@H](CC(F)F)C(=O)C(=O)O (stereo partly drawn) | 440
15 | CC(=O)N[C@H](C(=O)[C@H](CCC(=O)O)N[C@@H](CC1CCCCC1)C(=O)N[C@@H](CC(F)F)C(=O)O)C(c1ccccc1)c1ccccc1 | > 50000
16 | CCC(C)[C@H](NC(=O)OCc1ccccc1)C(=O)N[C@H](C(=O)N[C@@H](CC(F)F)C(=O)C(=O)O)C(C)C (stereo partly drawn) | 16000
17 | CC[C@H](C)[C@H](NC(=O)OCc1ccccc1)C(=O)N[C@@H](CC1CCCCC1)C(=O)N[C@@H](CC(F)F)C(=O)C(=O)O | 1400
18 | CC(=O)N[C@H](C(=O)[C@H](CCC(=O)O)N[C@@H](CC1CCCCC1)C(=O)N[C@@H](CC(F)F)C(=O)C(=O)O)C(c1ccccc1)c1ccccc1 | 5300
19 | CC[C@H](C)[C@H](NC(=O)OCc1ccccc1)C(=O)N[C@@H](CC(C)C)C(=O)N[C@@H](CC(F)F)C(=O)C(=O)O | 1700

Further lines, results first:

Row | IC50 [nM] | Compound
20 | 300 | CC(C)(C)OC(=O)N[C@@H](CCC(=O)O)C(=O)N[C@@H](CC(F)F)C(=O)N[C@@H](CC(F)F)C(=O)C(=O)O
21 | 330 | CC(C)C[C@H](NC(=O)[C@H](CCC(=O)O)NC(=O)OC(C)(C)C)C(=O)N[C@@H](CC(F)F)C(=O)C(=O)O
22 | 1630 | CC(C)C[C@H](NC(=O)[C@H](CC(=O)O)NC(=O)OC(C)(C)C)C(=O)N[C@@H](CC(F)F)C(=O)C(=O)O
23 | 16000 | CC[C@H](C)[C@H](NC(C)=O)C(=O)N[C@@H](CC(C)C)C(=O)N[C@@H](CC(F)F)C(=O)C(=O)O
24 | 1000 | CC[C@H](C)[C@H](NC(=O)OC(C)(C)C)C(=O)N[C@@H](CC(C)C)C(=O)N[C@@H](CC(F)F)C(=O)C(=O)O
25 | 380 | CC(C)C[C@H](NC(=O)[C@@H](NC(=O)OC(C)(C)C)C1CCCC1)C(=O)N[C@@H](CC(F)F)C(=O)C(=O)O
26 | 460 | CC(C)C[C@H](NC(=O)[C@@H](NC(=O)OC(C)(C)C)C(C)C)C(=O)N[C@@H](CC(F)F)C(=O)C(=O)O
27 | 8900 | CC(C)C[C@H](NC(=O)[C@H](C)NC(=O)OC(C)(C)C)C(=O)N[C@@H](CC(F)F)C(=O)C(=O)O
28 | 2100 | CC(C)C[C@H](NC(=O)[C@H](CCC(N)=O)NC(=O)OC(C)(C)C)C(=O)N[C@@H](CC(F)F)C(=O)C(=O)O
